This is an account of results in patent publication US20240217930A1 (priority 2021, published 2024).

This assay concerns the target SARS-CoV-2 Mpro (Severe acute respiratory syndrome coronavirus 2, UniProt P0DTD1). As to the kind of experiment: SARS-CoV-2 Mpro FRET-based enzyme assay. Particulars: 5 nM Mpro, 25 μM FRET substrate, 20 min preincubation at room temperature; mean n=2; read-out: SARS-CoV-2 Mpro enzyme pKi assay pKi (converted). Format: biochemical.
For `CC(C)(C)[C@H](NC(=O)C1CC1)C(=O)N1C[C@H]2[C@@H]([C@H]1C(=O)NC(CC1CC1)C(=O)C(=O)NC1CC1)C2(C)C` (stereo partly drawn) [Example 19, (1 R,2S,5S)-3-((S)-2-(Cyclopropanecarboxamido)-3,3-dimethylbutanoyl)-N-(1-cyclopropyl-4-(cyclopropylamino)-3,4-dioxobutan-2-yl)-6,6-dimethyl-3-azabicyclo[3.1.0]hexane-2-carboxamide], the Ki is 50.1 nM.

Consider `CC[C@@H](C)[C@H](NC(=O)C(C)C)C(=O)N1C[C@H]2[C@@H]([C@H]1C(=O)NC(CC1CC1)C(=O)C(N)=O)C2(C)C` (stereo partly drawn) [Example 3, (1R,2S,5S)—N-(4-Amino-1-cyclopropyl-3,4-dioxobutan-2-yl)-3-(isobutyryl-L-alloisoleucyl)-6,6-dimethyl-3-azabicyclo[3.1.0]hexane-2-carboxamide], for which the Ki was 79.4 nM. For the compound `CNC(=O)C(=O)C(CC1CC1)NC(=O)[C@@H]1[C@@H]2[C@H](CN1C(=O)[C@@H](NC(=O)C(C)C)C(C)(C)C)C2(C)C` (stereo partly drawn) [Example 22, (1 R,2S,5S)—N-(1-Cyclopropyl-4-(methylamino)-3,4-dioxobutan-2-yl)-3-((S)-2-isobutyramido-3,3-dimethylbutanoyl)-6,6-dimethyl-3-azabicyclo[3.1.0]hexane-2-carboxamide], the Ki is 15.8 nM. With `CC(C)C(=O)N[C@H](C(=O)N1C[C@H]2[C@@H]([C@H]1C(=O)NC(CC1CC1)C(=O)C(N)=O)C2(C)C)C1CC1` (stereo partly drawn) [Example 10, (1 R,2S,5S)—N-(4-Amino-1-cyclopropyl-3,4-dioxobutan-2-yl)-3-((S)-2-cyclopropyl-2-isobutyramidoacetyl)-6,6-dimethyl-3-azabicyclo[3.1.0]hexane-2-carboxamide] the figure was 316 nM; with `CC(C)C(=O)NC(C(=O)N1C[C@H]2[C@@H]([C@H]1C(=O)NC(CC1CC1)C(=O)C(N)=O)C2(C)C)C1CCOC1` (stereo partly drawn) [Example 30, (1 R,2S,5S)—N-(4-Amino-1-cyclopropyl-3,4-dioxobutan-2-yl)-3-(2-isobutyramido-2-(tetrahydrofuran-3-yl)acetyl)-6,6-dimethyl-3-azabicyclo[3.1.0]hexane-2-carboxamide], 158 nM. `CC(C)C(=O)NC(C(=O)N1C[C@H]2[C@@H]([C@H]1C(=O)NC(CC1CC1)C(=O)C(N)=O)C2(C)C)C1COC1` (stereo partly drawn) [Example 13, (1 R,2S,5S)—N-(4-Amino-1-cyclopropyl-3,4-dioxobutan-2-yl)-3-(2-isobutyramido-2-(oxetan-3-yl)acetyl)-6,6-dimethyl-3-azabicyclo[3.1.0]hexane-2-carboxamide]: the Ki is 316 nM. The value for `CC(C)(C)[C@H](NC(=O)C1CC1)C(=O)N1C[C@H]2[C@@H]([C@H]1C(=O)NC(CC1CC1)C(=O)C(=O)NCc1ccccc1)C2(C)C` (stereo partly drawn) [Example 18, (1 R,2S,5S)—N-(4-(Benzylamino)-1-cyclopropyl-3,4-dioxobutan-2-yl)-3-((S)-2-(cyclopropanecarboxamido)-3,3-dimethylbutanoyl)-6,6-dimethyl-3-azabicyclo[3.1.0]hexane-2-carboxamide] was 50.1 nM; that for `CC(C)C(=O)N[C@H](C(=O)N1C[C@H]2[C@@H]([C@H]1C(=O)NC(CC1CC1)C(=O)C(N)=O)C2(C)C)C1CCC1` (stereo partly drawn) [Example 25, (1 R,2S,5S)—N-(4-Amino-1-cyclopropyl-3,4-dioxobutan-2-yl)-3-((S)-2-cyclobutyl-2-isobutyramidoacetyl)-6,6-dimethyl-3-azabicyclo[3.1.0]hexane-2-carboxamide] was 251 nM.

`CC(C)C(=O)N[C@@H](CC1CC1)C(=O)N1C[C@H]2[C@@H]([C@H]1C(=O)NC(CC1CC1)C(=O)C(N)=O)C2(C)C` (stereo partly drawn) [Example 6, (1 R,2S,5S)—N-(4-Amino-1-cyclopropyl-3,4-dioxobutan-2-yl)-3-((S)-3-cyclopropyl-2-isobutyramidopropanoyl)-6,6-dimethyl-3-azabicyclo[3.1.0]hexane-2-carboxamide]: the Ki is 200 nM. The value for `CC(C)C(=O)N[C@H](C(=O)N1C[C@H]2[C@@H]([C@H]1C(=O)NC(C#N)CC1CC1)C2(C)C)C(C)(C)C` (stereo partly drawn) [Example 27, (1 R,2S,5S)—N-(1-Cyano-2-cyclopropylethyl)-3-((S)-2-isobutyramido-3,3-dimethylbutanoyl)-6,6-dimethyl-3-azabicyclo[3.1.0]hexane-2-carboxamide] was over 5010 nM. For `C=CC(=O)N[C@H](C(=O)N1C[C@H]2[C@@H]([C@H]1C(=O)NC(CC1CC1)C(=O)C(N)=O)C2(C)C)C(C)(C)C` (stereo partly drawn) [Example 15, (1 R,2S,5S)-3-((S)-2-Acrylamido-3,3-dimethylbutanoyl)-N-(4-amino-1-cyclopropyl-3,4-dioxobutan-2-yl)-6,6-dimethyl-3-azabicyclo[3.1.0]hexane-2-carboxamide], the Ki is 3.98 nM. The value for `CC(C)C(=O)N[C@H](C(=O)N1C[C@H]2[C@@H]([C@H]1C(=O)NC(CC1CC1)C(=O)C(N)=O)C2(C)C)C(C)(C)C` (stereo partly drawn) [Example 1, (1 R,2S,5S)—N-(4-Amino-1-cyclopropyl-3,4-dioxobutan-2-yl)-3-((S)-2-isobutyramido-3,3-dimethylbutanoyl)-6,6-dimethyl-3-azabicyclo[3.1.0]hexane-2-carboxamide] was 15.8 nM. With `CC(C)[C@H](NC(=O)C1CC1)C(=O)N1C[C@H]2[C@@H]([C@H]1C(=O)NC(CC1CC1)C(=O)C(N)=O)C2(C)C` (stereo partly drawn) [Example 2, (1 R,2S,5S)—N-[3-Amino-1-(cyclopropylmethyl)-2,3-dioxo-propyl]-3-[(2S)-2-(cyclopropanecarbonylamino)-3-methylbutanoyl]-6,6-dimethyl-3-azabicyclo[3.1.0]hexane-2-carboxamide] the figure was 50.1 nM; with `CC(C)C(=O)N[C@H](C(=O)N1C[C@H]2[C@@H]([C@H]1C(=O)NC(CC1CC1)C(=O)C(=O)N(C)C)C2(C)C)C(C)(C)C` (stereo partly drawn) [Example 23, (1 R,2S,5S)—N-(1-Cyclopropyl-4-(dimethylamino)-3,4-dioxobutan-2-yl)-3-((S)-2-isobutyramido-3,3-dimethylbutanoyl)-6,6-dimethyl-3-azabicyclo[3.1.0]hexane-2-carboxamide], over 5010 nM. The value for `CC1(C)[C@@H]2[C@@H](C(=O)NC(CC3CC3)C(=O)C(N)=O)N(C(=O)[C@@H](NC(=O)C3CC3)C3CC3)C[C@@H]21` (stereo partly drawn) [Example 9, (1 R,2S,5S)—N-(4-Amino-1-cyclopropyl-3,4-dioxobutan-2-yl)-3-((S)-2-(cyclopropanecarboxamido)-2-cyclopropylacetyl)-6,6-dimethyl-3-azabicyclo[3.1.0]hexane-2-carboxamide] was 316 nM; that for `CC(C)[C@H](NC(=O)C1CC1)C(=O)N1C[C@H]2[C@@H]([C@H]1C(=O)NC(CC1CC1)C(=O)C(=O)NC1CC1)C2(C)C` (stereo partly drawn) [Example 29, (1 R,2S,5S)-3-((Cyclopropanecarbonyl)-L-valyl)-N-(1-cyclopropyl-4-(cyclopropylamino)-3,4-dioxobutan-2-yl)-6,6-dimethyl-3-azabicyclo[3.1.0]hexane-2-carboxamide] was 251 nM.

Regarding `CC(C)C(=O)N[C@H](C(=O)N1C[C@H]2[C@@H]([C@H]1C(=O)NC(CC1CC1)C(=O)C(=O)N[C@H]1CC1(C)C)C2(C)C)C(C)(C)C` (stereo partly drawn) [Example 31, (1 R,2S,5S)—N-(1-Cyclopropyl-4-(((S)-2,2-dimethylcyclopropyl)amino)-3,4-dioxobutan-2-yl)-3-((S)-2-isobutyramido-3,3-dimethylbutanoyl)-6,6-dimethyl-3-azabicyclo[3.1.0]hexane-2-carboxamide], the Ki was 100 nM. In the case of `CC(C)(C)[C@H](NC(=O)C(C(F)(F)F)C(F)(F)F)C(=O)N1C[C@H]2[C@@H]([C@H]1C(=O)NC(CC1CC1)C(=O)C(N)=O)C2(C)C` (stereo partly drawn) [Example 33, (1 R,2S,5S)—N-(4-Amino-1-cyclopropyl-3,4-dioxobutan-2-yl)-3-((S)-3,3-dimethyl-2-(3,3,3-trifluoro-2-(trifluoromethyl)propanamido)butanoyl)-6,6-dimethyl-3-azabicyclo[3.1.0]hexane-2-carboxamide], the Ki is 158 nM. In the case of `CC(C)C(=O)N[C@H](C(=O)N1C[C@H]2[C@@H]([C@H]1C(=O)NC(CC1CC1)C(=O)C(N)=O)C2(C)C)C(C)C` (stereo partly drawn) [Example 7, (1 R,2S,5S)—N-(4-Amino-1-cyclopropyl-3,4-dioxobutan-2-yl)-3-(isobutyryl-L-valyl)-6,6-dimethyl-3-azabicyclo[3.1.0]hexane-2-carboxamide], the Ki is 200 nM. For `CC(C)C(=O)N[C@H](C(=O)N1C[C@H]2[C@@H]([C@H]1C(=O)NC(C[C@H]1C[C@@H]1C)C(=O)C(N)=O)C2(C)C)C(C)C` (stereo partly drawn) [Example 5, (1 R,2S,5S)—N-(4-Amino-1-((1 R,2S)-2-methylcyclopropyl)-3,4-dioxobutan-2-yl)-3-(isobutyryl-L-valyl)-6,6-dimethyl-3-azabicyclo[3.1.0]hexane-2-carboxamide], the Ki was 158 nM. Take `CC(C)(C)[C@H](NC(=O)C1CC1)C(=O)N1C[C@H]2[C@@H]([C@H]1C(=O)NC(CC1CC1)C(=O)C(N)=O)C2(C)C` (stereo partly drawn) [Example 14, (1 R,2S,5S)—N-(4-Amino-1-cyclopropyl-3,4-dioxobutan-2-yl)-3-((S)-2-(cyclopropanecarboxamido)-3,3-dimethylbutanoyl)-6,6-dimethyl-3-azabicyclo[3.1.0]hexane-2-carboxamide]: the Ki was 15.8 nM. The value for `C=CC(=O)N[C@H](C(=O)N1C[C@H]2[C@@H]([C@H]1C(=O)NC(CC1CC1)C(=O)C(N)=O)C2(C)C)C(C)C` (stereo partly drawn) [Example 4, (1 R,2S,5S)-3-(Acryloyl-L-valyl)-N-(4-amino-1-cyclopropyl-3,4-dioxobutan-2-yl)-6,6-dimethyl-3-azabicyclo[3.1.0]hexane-2-carboxamide] was 50.1 nM.
